In patent publication US20120165310A1, “ETHER DERIVATIVES OF BICYCLIC HETEROARYLS” (NOVARTIS AG, priority 2009, published 2012):

Target: T1, IGF-1R (Homo sapiens, UniProt P08069)
T1 construct: expressed in transfected cells; host or cells: Hek293 (Hek293-IGF1R)
Assay: Cellular IGF-1R assay: capture ELISA (MSD) of receptor phosphorylation in Hek293 cells
Assay type: cell-based
Conditions: Hek293-IGF1R cells, 1 h pre-incubation, 10 min IGF stimulation, pIGF1R capture ELISA
Outline: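 IC50 from 4-parameter fit of IGF1R phosphorylation, normalised to IGF-stimulated and unstimulated controls, measured by MSD capture ELISA on lysates. Hek293-IGF1R cells in starvation medium got compound 1 h (top 10 μM, 3-fold steps, 0.1% DMSO) before a 10 min pulse of 1.0 ng/μL IGF.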

T1 sequence (P08069 31-1367): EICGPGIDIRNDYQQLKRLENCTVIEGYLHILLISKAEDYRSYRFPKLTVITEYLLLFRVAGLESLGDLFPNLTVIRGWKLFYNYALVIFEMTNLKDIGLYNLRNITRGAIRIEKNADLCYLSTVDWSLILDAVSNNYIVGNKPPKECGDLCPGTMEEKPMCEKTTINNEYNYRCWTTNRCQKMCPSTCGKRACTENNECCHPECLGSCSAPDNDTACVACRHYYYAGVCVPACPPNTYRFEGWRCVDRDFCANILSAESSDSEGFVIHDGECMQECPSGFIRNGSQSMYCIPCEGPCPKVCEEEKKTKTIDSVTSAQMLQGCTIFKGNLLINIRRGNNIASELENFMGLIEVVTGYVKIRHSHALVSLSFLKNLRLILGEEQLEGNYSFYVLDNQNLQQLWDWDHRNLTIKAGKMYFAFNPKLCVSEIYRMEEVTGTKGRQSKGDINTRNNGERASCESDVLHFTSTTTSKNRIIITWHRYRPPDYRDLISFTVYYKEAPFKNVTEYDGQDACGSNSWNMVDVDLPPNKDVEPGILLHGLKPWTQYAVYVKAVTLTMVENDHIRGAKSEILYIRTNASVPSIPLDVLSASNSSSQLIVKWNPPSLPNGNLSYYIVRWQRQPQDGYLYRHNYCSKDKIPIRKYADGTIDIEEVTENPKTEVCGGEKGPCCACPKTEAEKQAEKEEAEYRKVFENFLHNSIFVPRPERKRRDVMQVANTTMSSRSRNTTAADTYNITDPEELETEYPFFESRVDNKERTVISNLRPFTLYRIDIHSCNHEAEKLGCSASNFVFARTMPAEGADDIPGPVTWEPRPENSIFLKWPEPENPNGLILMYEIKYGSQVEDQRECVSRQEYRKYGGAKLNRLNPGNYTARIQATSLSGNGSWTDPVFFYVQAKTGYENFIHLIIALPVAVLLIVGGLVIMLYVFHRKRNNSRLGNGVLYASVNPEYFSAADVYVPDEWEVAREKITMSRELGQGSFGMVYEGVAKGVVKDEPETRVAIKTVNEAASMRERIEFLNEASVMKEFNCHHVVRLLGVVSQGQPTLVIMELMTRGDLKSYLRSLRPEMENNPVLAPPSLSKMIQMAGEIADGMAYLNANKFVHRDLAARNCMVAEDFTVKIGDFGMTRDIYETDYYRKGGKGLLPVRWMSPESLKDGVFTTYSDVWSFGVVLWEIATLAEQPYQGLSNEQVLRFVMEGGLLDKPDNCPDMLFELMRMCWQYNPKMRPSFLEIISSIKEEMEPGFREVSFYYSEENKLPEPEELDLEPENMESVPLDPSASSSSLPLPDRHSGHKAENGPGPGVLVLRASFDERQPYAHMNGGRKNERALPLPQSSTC

Row | IC50 | Structure (SMILES)
1 | 74 nM | Nc1ncnc2c1c(-c1cccc(OCC34CCC(CC3)O4)c1)cn2C1CC(CN2CC3CC2CS3)C1 [Example 227, 5-[3-(7-Oxa-bicyclo[2.2.1]hept-1-ylmethoxy)-phenyl]-7-{(trans-3-[(1S,4S)-1-(2-thia-5-aza-bicyclo[2.2.1]hept-5-yl)methyl]-cyclobutyl}-7H-pyrrolo[2,3-d]pyrimidin-4-ylamine]
2 | 14 nM | Nc1ncnc2c1c(-c1cccc(OCC34CCC(CC3)O4)c1)cn2[C@H]1C[C@@](O)(CN2CCS(=O)(=O)CC2)C1 [Example 205, (E)-3-{4-Amino-5-[3-(7-oxa-bicyclo[2.2.1]hept-1-ylmethoxy)-phenyl]-pyrrolo[2,3-d]pyrimidin-7-yl}-1-(1,1-dioxo-1lambda*6*-thiomorpholin-4-ylmethyl)-cyclobutanol]
3 | 211 nM | Nc1ncnc2c1c(-c1cccc(OCC34CCC(CC3)O4)c1)cn2[C@H]1CC[C@H](N)CC1 (relative stereo) [Example 182, 7-(trans-4-Amino-cyclohexyl)-5-[3-(7-oxa-bicyclo[2.2.1]hept-1-ylmethoxy)-phenyl]-7H-pyrrolo[2,3-d]pyrimidin-4-ylamine]
4 | 60 nM | Nc1ncnc2c1c(-c1cccc(OCC34CCC(CC3)O4)c1)cn2C1CC(O)(CN2CCCC2CO)C1 (single isomer, unassigned) [Example 209]
5 | 4 to 14 nM | Nc1ncnc2c1c(-c1cccc(OCC34CCC(CC3)O4)c1)cn2C1CC(CN2CCC[C@H]2CO)C1 (stereo partly drawn) [Example 25, [(S)-1-(3-{4-amino-5-[3-(7-oxa-bicyclo[2.2.1]hept-1-ylmethoxy)-phenyl]-pyrrolo[2,3-d]pyrimidin-7-yl}-cyclobutylmethyl)-pyrrolidin-2-yl]-methanol]
6 | 61 nM | Nc1ncnc2c1c(-c1cccc(OCC34CCC(CC3)O4)c1)cn2[C@H]1C[C@@H](CN2CCSCC2=O)C1 [Example 106, 4-(((1S,3S)-3-(5-(3-(7-oxabicyclo[2.2.1]heptan-1-ylmethoxy)phenyl)-4-amino-7H-pyrrolo[2,3-d]pyrimidin-7-yl}-cyclobutyl)methyl)thiomorpholin-3-one]
7 | 352 nM | Nc1ncnc2c1c(-c1cccc(OCC34CCC(CC3)O4)c1)cn2[C@H]1C[C@H](O)C1 [Example 222, (E)-3-{4-amino-5-[3-(7-oxa-bicyclo[2.2.1]hept-1-ylmethoxy)-phenyl]-pyrrolo[2,3-d]pyrimidin-7-yl}-cyclobutanol]
8 | 9 nM | Nc1ncnc2c1c(-c1cccc(OCC34CCC(CC3)O4)c1)cn2[C@H]1C[C@@H](CN2CCC(O)CC2)C1 (relative stereo) [Example 184, 1-(cis-3-{4-Amino-5-[3-(7-oxa-bicyclo[2.2.1]hept-1-ylmethoxy)-phenyl]-pyrrolo[2,3-d]pyrimidin-7-yl}-cyclobutylmethyl)-piperidin-4-ol]
9 | 108 nM | Nc1ncnc2c1c(-c1cccc(OCC34CCC(CC3)O4)c1)cn2C1CCC(N2CCS(=O)(=O)CC2)CC1 (stereo not shown) [Example 131, 7-[4-(1,1-Dioxo-1λ6-thiomorpholin-4-yl)-cyclohexyl]-5-[3-(7-oxa-bicyclo[2.2.1]hept-1-ylmethoxy)-phenyl]-7H-pyrrolo[2,3-d]pyrimidin-4-ylamine]
10 | 287 nM | Nc1ncnc2c1c(-c1cccc(OCC34CCC(CC3)O4)c1)cn2[C@H]1CC[C@@H](CN2CC[S+]([O-])CC2)CC1 [Example 115, 5-[3-(7-Oxa-bicyclo[2.2.1]hept-1-ylmethoxy)-phenyl]-7-cis-[4-(1-oxo-1λ4-thiomorpholin-4-ylmethyl)-cyclohexyl]-7H-pyrrolo[2,3-d]pyrimidin-4-ylamine]
11 | 299 nM | CS(=O)(=O)CCN1CCC(n2cc(-c3cccc(OCC45CCC(CC4)O5)c3)c3c(N)ncnc32)CC1 [Example 114, 5-(3-(7-oxabicyclo[2.2.1]heptan-1-ylmethoxy)phenyl)-7-(1-(2-(methylsulfonyl)ethyl)piperidin-4-yl)-7H-pyrrolo[2,3-d]pyrimidin-4-amine]

More lines, now with the values behind:

Row | Structure (SMILES) | IC50
12 | C[C@]1(O)C[C@@H](c2nc(-c3cccc(OCC45CCC(CC4)O5)c3)c3c(N)nccn32)C1 [Example 122] | 485 nM
13 | NC(=O)C1CC(F)CN1CC1CC(n2cc(-c3cccc(OCC4CCCCO4)c3)c3c(N)ncnc32)C1 [Example 94, (2S,4R)-1-(((1 S,3R)-3-(4-amino-5-(3-((tetrahydro-2H-pyran-2-yl)methoxy)phenyl)-7H-pyrrolo[2,3-d]pyrimidin-7-yl)cyclobutyl)methyl)-4-fluoropyrrolidine-2-carboxamide] | 85 nM
14 | NC(=O)[C@@H]1CCCN1C[C@H]1C[C@@H](n2cc(-c3cccc(OCC4CCCCO4)c3)c3c(N)ncnc32)C1 (stereo partly drawn) [Example 42, (S)-1-(cis-3-{4-amino-5-[3-(tetrahydro-pyran-2-ylmethoxy)-phenyl]-pyrrolo[2,3-d]pyrimidin-7-yl}-cyclobutylmethyl)-pyrrolidine-2-carboxylic acid amide] | 26 to 39 nM
15 | CC1(C)CN(CC2CC(n3cc(-c4cccc(OCC5CCCCO5)c4)c4c(N)ncnc43)C2)[C@H](C(N)=O)CO1 (stereo partly drawn) [Example 98, (3S)-4-((3-(4-amino-5-(3-((tetrahydro-2H-pyran-2-yl)methoxy)phenyl)-7H-pyrrolo[2,3-d]pyrimidin-7-yl)cyclobutyl)methyl)-6,6-dimethylmorpholine-3-carboxamide] | 28 nM
16 | Nc1ncnc2c1c(-c1cccc(OCC34CCC(CC3)O4)c1)cn2[C@H]1C[C@@]2(CNC(=O)O2)C1 [Example 169, (E)-2-{4-amino-5-[3-(7-oxa-bicyclo[2.2.1]hept-1-ylmethoxy)-phenyl]-pyrrolo[2,3-d]pyrimidin-7-yl}-5-oxa-7-aza-spiro[3.4]octan-6-one] | 66 nM
17 | Nc1ncnc2c1c(-c1cccc(OCC34CCC(CC3)O4)c1)cn2[C@H]1C[C@@]2(CNC(=O)CO2)C1 [Example 220, (E)-2-{4-amino-5-[3-(7-oxa-bicyclo[2.2.1]hept-1-ylmethoxy)-phenyl]-pyrrolo[2,3-d]pyrimidin-7-yl}-5-oxa-8-aza-spiro[3.5]nonan-7-one] | 364 nM
18 | CN1CCN([C@H]2CC[C@@H](n3cc(-c4cccc(OC[C@@H]5CCC(C)(C)O5)c4)c4c(N)ncnc43)CC2)CC1 [Example 119, 5-(3-(((S)-5,5-dimethyltetrahydrofuran-2-yl)methoxy)phenyl)-7-((1S,4S)-4-(4-methylpiperazin-1-yl)cyclohexyl)-7H-pyrrolo[2,3-d]pyrimidin-4-amine] | 36 nM
19 | Nc1ncnc2c1c(-c1cccc(OCC3CCCO3)c1)cn2[C@H]1C[C@H](CN2CCS(=O)(=O)CC2)C1 (relative stereo) [Example 89, 7-[trans-3-(1,1-Dioxothiomorpholin-4-ylmethyl)-cyclobutyl]-5-[3-(tetrahydro-furan-2-ylmethoxy)-phenyl]-7H-pyrrolo[2,3-d]pyrimidin-4-ylamine] | 316 nM
20 | CC1(C)CCC(COc2cccc(-c3cn([C@H]4C[C@@H](CN5CCC(F)(F)CC5)C4)c4ncnc(N)c34)c2)O1 (relative stereo) [Example 53, 7-[cis-3-(4,4-difluoro-piperidin-1-ylmethyl)-cyclobutyl]-5-[3-(5,5-dimethyl-tetrahydro-furan-2-ylmethoxy)-phenyl]-7H-pyrrolo[2,3-d]pyrimidin-4-ylamine] | 32 to 37 nM
21 | NC(=O)[C@H]1CCCN1C[C@H]1C[C@@H](n2cc(-c3cccc(OCC4CCCCO4)c3)c3c(N)ncnc32)C1 (stereo partly drawn) [Example 29, (R)-1-(cis-3-{4-amino-5-[3-(tetrahydro-pyran-2-ylmethoxy)-phenyl]-pyrrolo[2,3-d]pyrimidin-7-yl}-cyclobutylmethyl)-pyrrolidine-2-carboxylic acid amide] | 149 to 152 nM
22 | CC1(C)CCC(COc2cccc(-c3cn([C@H]4C[C@@H](CN5CCC[C@@H]5C(N)=O)C4)c4ncnc(N)c34)c2)O1 (stereo partly drawn) [Example 51, (R)-1-(cis-3-{4-amino-5-[3-(5,5-dimethyl-tetrahydro-furan-2-ylmethoxy)-phenyl]-pyrrolo[2,3-d]pyrimidin-7-yl}-cyclobutylmethyl)-pyrrolidine-2-carboxylic acid amide] | 53 nM
23 | CC1(C)CCC(COc2cccc(-c3cn(C4CC(CN5CC(F)C5)C4)c4ncnc(N)c34)c2)O1 (stereo not drawn) [Example 47, 5-[trans-3-(5,5-dimethyl-tetrahydro-furan-2-ylmethoxy)-phenyl]-7-[3-(3-fluoro-azetidin-1-ylmethyl)-cyclobutyl]-7H-pyrrolo[2,3-d]pyrimidin-4-ylamine] | 34 nM
24 | CC(=O)NN[C@H]1C[C@@H](n2cc(-c3cccc(OCC45CCC(CC4)O5)c3)c3c(N)ncnc32)C1 (relative stereo) [Example 193, Acetic acid N′-(cis-3-{4-amino-5-[3-(7-oxa-bicyclo[2.2.1]hept-1-ylmethoxy)-phenyl]-pyrrolo[2,3-d]pyrimidin-7-yl}-cyclobutyl)-hydrazide] | 112 nM
25 | CC1(C)CCC(COc2cccc(-c3cn([C@H]4CC[C@@H](N5CCOCC5)CC4)c4ncnc(N)c34)c2)O1 (relative stereo) [Example 65, 5-[3-(5,5-dimethyl-tetrahydro-furan-2-ylmethoxy)-phenyl]-7-(cis-4-morpholin-4-yl-cyclohexyl)-7H-pyrrolo[2,3-d]pyrimidin-4-ylamine] | 128 nM
26 | CCC(=O)NCC1CC(n2cc(-c3cccc(OCC45CCC(CC4)O5)c3)c3c(N)ncnc32)C1 (stereo not shown) [Example 162, N-(3-{4-amino-5-[3-(7-oxa-bicyclo[2.2.1]hept-1-ylmethoxy)-phenyl]-pyrrolo[2,3-d]pyrimidin-7-yl}-cyclobutylmethyl)-propionamide] | 101 nM
27 | CC(=O)N1CC2CC1CN2[C@H]1C[C@@H](n2cc(-c3cccc(OCC45CCC(CC4)O5)c3)c3c(N)ncnc32)C1 (relative stereo) [Example 173, 1-[5-(cis-3-{4-amino-5-[3-(7-oxa-bicyclo[2.2.1]hept-1-ylmethoxy)-phenyl]-pyrrolo[2,3-d]pyrimidin-7-yl}-cyclobutyl)-2,5-diaza-bicyclo[2.2.1]hept-2-yl]-ethanone] | 182 nM
28 | CC(=O)NC[C@H]1C[C@@H](n2cc(-c3cccc(OCC45CCC(CC4)O5)c3)c3c(N)ncnc32)C1 [Example 178] | 47 to 112 nM
